Test results published in ChEMBL document CHEMBL4732127, “The discovery of a potent and selective pyrazolo-[2,3-e]-[1,2,4]-triazine cannabinoid type 2 receptor agonist” (Eur J Med Chem, 2021).
Active and inactive are the calls of the source. The calls are words filed in the database; no cut-off is given here.

What was measured:
Cannabinoid receptor 2 [1] = molecular target: T1, Cannabinoid receptor 2 (Homo sapiens, UniProt P34972); test: Agonist activity at human CB2 expressed in mouse AtT20 cells assessed as activation of G-protein gated inwardly rectifying K+ channels measured every 2 sec for 2 mins by FLIPR membrane potential assay; format: cell-based
Cannabinoid receptor 1 [2] = molecular target: T2, Cannabinoid receptor 1 (Homo sapiens, UniProt P21554); test: Agonist activity at human CB1 expressed in mouse AtT20 cells assessed as activation of G-protein gated inwardly rectifying K+ channels at 10 uM measured every 2 sec for 2 mins by FLIPR membrane potential assay; format: cell-based; settings: att20, 2 min
Cannabinoid receptor 2 [3] = molecular target: T1, Cannabinoid receptor 2; test: Agonist activity at human CB2 expressed in mouse AtT20 cells assessed as activation of G-protein gated inwardly rectifying K+ channels at 10 uM measured every 2 sec for 2 mins by FLIPR membrane potential assay; format: cell-based
Cannabinoid receptor 2 [4] = molecular target: T1, Cannabinoid receptor 2; test: Agonist activity at human CB2 expressed in mouse AtT20 cells assessed as maximal activation of G-protein gated inwardly rectifying K+ channels measured every 2 sec for 2 mins by FLIPR membrane potential assay relative to control; format: cell-based; settings: filed as agonist
Cannabinoid receptor 2 [5] = molecular target: T1, Cannabinoid receptor 2; test: Agonist activity at human CB2 expressed in mouse AtT20 cells assessed as activation of G-protein gated inwardly rectifying K+ channels at 10 uM measured every 2 sec for 2 mins by FLIPR membrane potential assay relative to control; format: cell-based; settings: filed as agonist
Cannabinoid receptor 1 [6] = molecular target: T2, Cannabinoid receptor 1; test: Agonist activity at CB1 (unknown origin)
Cannabinoid receptor 2 [7] = molecular target: T1, Cannabinoid receptor 2; test: Agonist activity at CB2 (unknown origin)
Cannabinoid receptor 1 [8] = molecular target: T2, Cannabinoid receptor 1; test: Displacement of [3H]-CP55940 from human CB1 expressed in CHO cell membrane incubated for 3 hrs by microbeta scintillation counting method; format: cell membranes
Cannabinoid receptor 2 [9] = molecular target: T1, Cannabinoid receptor 2; test: Displacement of [3H]-CP55940 from human CB2 expressed in CHO cell membrane incubated for 3 hrs by microbeta scintillation counting method; format: cell membranes

T2 sequence (P21554 whole entry): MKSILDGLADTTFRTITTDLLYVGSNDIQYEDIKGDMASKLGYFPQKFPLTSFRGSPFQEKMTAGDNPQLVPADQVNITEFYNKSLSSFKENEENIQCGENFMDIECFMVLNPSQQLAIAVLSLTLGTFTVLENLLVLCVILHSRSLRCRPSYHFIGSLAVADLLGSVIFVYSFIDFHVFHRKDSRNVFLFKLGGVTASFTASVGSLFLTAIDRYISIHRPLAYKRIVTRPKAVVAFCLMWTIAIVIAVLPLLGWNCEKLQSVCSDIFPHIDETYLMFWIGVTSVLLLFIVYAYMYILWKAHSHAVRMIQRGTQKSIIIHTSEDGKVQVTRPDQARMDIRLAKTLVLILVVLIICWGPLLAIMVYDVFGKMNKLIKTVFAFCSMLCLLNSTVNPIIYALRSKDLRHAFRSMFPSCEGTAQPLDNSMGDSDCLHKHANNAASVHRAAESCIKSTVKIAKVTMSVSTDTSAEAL
T1 sequence (P34972 whole entry): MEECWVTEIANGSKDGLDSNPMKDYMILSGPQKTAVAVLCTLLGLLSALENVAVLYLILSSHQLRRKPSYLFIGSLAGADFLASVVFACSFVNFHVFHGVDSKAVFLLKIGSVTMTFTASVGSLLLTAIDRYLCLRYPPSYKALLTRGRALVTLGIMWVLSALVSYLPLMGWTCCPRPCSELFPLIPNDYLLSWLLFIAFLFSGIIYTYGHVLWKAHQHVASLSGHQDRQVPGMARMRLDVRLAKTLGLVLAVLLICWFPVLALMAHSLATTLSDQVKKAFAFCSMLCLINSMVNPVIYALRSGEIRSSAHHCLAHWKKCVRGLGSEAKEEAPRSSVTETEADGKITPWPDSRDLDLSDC

| SMILES | pEC50 (Cannabinoid receptor 2 [1]) | Activity (Cannabinoid receptor 1 [2]) | Activity (Cannabinoid receptor 2 [3]) | further results |
| --- | --- | --- | --- | --- |
| CC(C)(O)COc1ccc(C(F)(F)F)cc1CCc1cc(C(C)(C)C)nn1C[C@H]1CCCO1 | inactive | < 50% | < 50% | – |
| CC(C)(O)COc1ccc(C(F)(F)F)cc1NC(=O)c1cc(C(C)(C)C)nn1C[C@H]1CCCO1 | – | < 50% | – | EC50 (Cannabinoid receptor 2 [1]; read-out: EC50): 6760 nM; EC50 (Cannabinoid receptor 2 [1]; read-out: pEC50 (converted)): 5250 nM; Emax (Cannabinoid receptor 2 [4]): 106% |
| CN(C(=O)c1cc(C(F)(F)F)ccc1OCC(C)(C)O)c1cc(C(C)(C)C)nn1C[C@H]1CCCO1 | inactive | < 50% | < 50% | – |
| CC(C)(O)COc1ccc(C(F)(F)F)cc1-c1ncc2c(C(C)(C)C)nn(C[C@H]3CCCO3)c2n1 | – | < 50% | – | EC50 (Cannabinoid receptor 2 [1]; read-out: EC50): 41 nM; Emax (Cannabinoid receptor 2 [4]): 106% |
| CC(C)(O)COc1ccc(C(F)(F)F)cc1-c1ccc2c(C(C)(C)C)nn(C[C@H]3CCCO3)c2c1 | – | < 50% | – | EC50 (Cannabinoid receptor 2 [1]; read-out: EC50): 673 nM; Emax (Cannabinoid receptor 2 [4]): 104% |
| CC(C)(O)COc1ccc(C(F)(F)F)cc1-c1cn(-c2cc(C(C)(C)C)nn2C[C@H]2CCCO2)nn1 | inactive | < 50% | < 50% | – |
| CC(C)(O)COc1ccc(C(F)(F)F)cc1C#Cc1cc(C(C)(C)C)nn1C[C@H]1CCCO1 | – | < 50% | – | Activity (Cannabinoid receptor 2 [5]): 62% |
| CC(C)(O)COc1ccc(C(F)(F)F)cc1Nc1cc(C(C)(C)C)nn1C[C@H]1CCCO1 | inactive | < 50% | < 50% | – |
| Cn1c(C(C)(C)C)c/c(=N\C(=O)c2cc(C(F)(F)F)ccc2OCC(C)(C)O)n1C[C@H]1CCCO1 | – | – | – | EC50 (Cannabinoid receptor 1 [6]): > 10000 nM; EC50 (Cannabinoid receptor 2 [7]): 19 nM; Ki (Cannabinoid receptor 1 [8]): > 10000 nM; Ki (Cannabinoid receptor 2 [9]): 5.9 nM |
| CC(C)(O)COc1ccc(C(F)(F)F)cc1C(=O)Oc1cc(C(C)(C)C)nn1C[C@H]1CCCO1 | – | < 50% | – | EC50 (Cannabinoid receptor 2 [1]; read-out: EC50): 1280 nM; Emax (Cannabinoid receptor 2 [4]): 106% |
| CC(C)(O)COc1ccc(C(F)(F)F)cc1/C=C/c1cc(C(C)(C)C)nn1C[C@H]1CCCO1 | – | < 50% | – | Activity (Cannabinoid receptor 2 [5]): 54% |
| CC(C)(O)COc1ccc(C(F)(F)F)cc1CNc1cc(C(C)(C)C)nn1C[C@H]1CCCO1 | inactive | < 50% | < 50% | – |
| CC(C)(O)COc1ccc(C(F)(F)F)cc1NC(=O)Nc1cc(C(C)(C)C)nn1C[C@H]1CCCO1 | – | < 50% | – | Activity (Cannabinoid receptor 2 [5]): 54% |
| CC(C)(O)COc1ccc(C(F)(F)F)cc1-c1cc(C(C)(C)C)nn1C[C@H]1CCCO1 | inactive | < 50% | < 50% | – |
| CC(C)(O)COc1ccc(C(F)(F)F)cc1C(=O)Nc1cc(C(C)(C)C)nn1C[C@H]1CCCO1 | – | – | – | Ki (Cannabinoid receptor 1 [8]): > 10000 nM; Ki (Cannabinoid receptor 2 [9]): > 10000 nM |
| CC(C)(O)COc1ccc(C(F)(F)F)cc1C(=S)Nc1cc(C(C)(C)C)nn1C[C@H]1CCCO1 | – | < 50% | – | Activity (Cannabinoid receptor 2 [5]): 51% |
| CC(C)(O)COc1ccc(C(F)(F)F)cc1-c1ccc(-c2cc(C(C)(C)C)nn2C[C@H]2CCCO2)o1 | inactive | < 50% | < 50% | – |
| CC(C)(O)COc1ccc(C(F)(F)F)cc1S(=O)(=O)Nc1cc(C(C)(C)C)nn1C[C@H]1CCCO1 | inactive | < 50% | < 50% | – |
| CC(C)(O)COc1ccc(C(F)(F)F)cc1-c1nnc2c(C(C)(C)C)nn(C[C@H]3CCCO3)c2n1 | – | < 50% | – | EC50 (Cannabinoid receptor 2 [1]; read-out: EC50): 19 nM; Emax (Cannabinoid receptor 2 [4]): 115%; Ki (Cannabinoid receptor 1 [8]): > 10000 nM; Ki (Cannabinoid receptor 2 [9]): 17 nM |
